In patent publication US20120053148A1, “INHIBITORS OF HEPATITIS C VIRUS” (GILEAD SCIENCES, INC., priority 2010, published 2012):
pEC50: −log10 of the molar value.

Tested on: HCV Replicon IB
Assay: HCV replicon assay in Huh-7 cells, genotype 1b (Rluc luciferase readout)
Type: cell-based, hepatitis C virus
Conditions: Hepatitis C virus, Huh-7, 72 h, HCV1B replicon, Huh-7 cells, 3 days; read-out: EC50_HCV1B_

With `Cc1cc(-c2nnc(N(CO)CC3OCCO3)o2)nc2c(C(C)(C)C)cc(C3CC3)cc12` [Compound 404] as the compound, how does the pEC50 read?
Its pEC50 is 8.66.

How did the pEC50 turn out when `Cc1cc(-c2nnc(N[C@@H]3CCOC3)o2)nc2c(C(C)(C)C)cc(C3CC3)cc12` [Compound 405] was run?
The pEC50 was 8.28.

With `Cc1cc(-c2nnc(NCCC(C)(C)O)o2)nc2c(C(C)(C)C)cc(C3CC3)cc12` [Compound 409] as the compound, how does the pEC50 read?
The pEC50 was 8.03.

`Cc1cc(-c2nnc(NCC3OC[C@H](C)O3)o2)nc2c(C(C)(C)C)cc(C3CC3)cc12` (stereo partly drawn) [Compound 412] was tested. Which pEC50 did it give?
Its pEC50 is 7.44.

With `Cc1cc(-c2nnc(NCC3O[C@H]4COC[C@H]4O3)o2)nc2c(C(C)(C)C)cc(C3CC3)cc12` (stereo partly drawn) [Compound 413] as the compound, how does the pEC50 read?
The pEC50 was 6.51.

With `Cc1cc(-c2nnc(N[C@H]3CC[C@@H](O)C3)o2)nc2c(C(C)(C)C)cc(C3CC3)cc12` [Compound 414] as the compound, how does the pEC50 read?
The pEC50 was 8.76.

`Cc1cc(-c2nnc(NCC3COC(C)(C)O3)o2)nc2c(C(C)(C)C)cc(C3CC3)cc12` (stereo not drawn) [Compound 415] was tested. Which pEC50 did it give?
Its pEC50 is 7.07.

How did the pEC50 turn out when `Cc1cc(-c2nnc(NC[C@H]3C[C@@H](O)C3)o2)nc2c(C(C)(C)C)cc(C3CC3)cc12` [Compound 417] was run?
Its pEC50 is 8.21.

How did the pEC50 turn out when `Cc1cc(-c2nnc(NC[C@H]3C[C@H](O)C3)o2)nc2c(C(C)(C)C)cc(C3CC3)cc12` [Compound 418] was run?
Its pEC50 is 8.34.

How did the pEC50 turn out when `Cc1cc(-c2nnc(NCC3CNC(=O)O3)o2)nc2c(C(C)(C)C)cc(C3CC3)cc12` (stereo not drawn) [Compound 419] was run?
Its pEC50 is 7.36.

`Cc1cc(-c2nnc(NC3CC(O)C3)o2)nc2c(C(C)(C)C)cc(C3CC3)cc12` (stereo not drawn) [Compound 420] was tested. Which pEC50 did it give?
Its pEC50 is 8.51.

How did the pEC50 turn out when `Cc1cc(-c2nnc(N[C@H]3C[C@@H](O)C3)o2)nc2c(C(C)(C)C)cc(C3CC3)cc12` [Compound 421] was run?
The pEC50 was 8.49.

With `Cc1cc(-c2nnc(N[C@H]3C[C@H](O)C3)o2)nc2c(C(C)(C)C)cc(C3CC3)cc12` [Compound 422] as the compound, how does the pEC50 read?
The pEC50 was 8.26.

How did the pEC50 turn out when `Cc1cc(-c2nnc(N[C@H]3C[C@@](C)(O)C3)o2)nc2c(C(C)(C)C)cc(C3CC3)cc12` [Compound 423] was run?
The pEC50 was 8.87.

With `Cc1cc(C(=O)NCC2COC2)nc2c(C(C)(C)C)cc(C3CC3)cc12` [Compound 424] as the compound, how does the pEC50 read?
The pEC50 was 6.31.

`CO[C@H]1CN[C@H](CNC(=O)c2cc(C)c3cc(C4CC4)cc(C(C)(C)C)c3n2)C1` [Compound 425] was tested. Which pEC50 did it give?
Its pEC50 is 7.90.

`Cc1cc(C(=O)NC[C@@H]2CS(=O)(=O)CCN2)nc2c(C(C)(C)C)cc(C3CC3)cc12` [Compound 426] was tested. Which pEC50 did it give?
Its pEC50 is 8.20.

With `Cc1cc(C(=O)NC[C@@H]2CSCN2)nc2c(C(C)(C)C)cc(C3CC3)cc12` [Compound 427] as the compound, how does the pEC50 read?
The pEC50 was 8.13.

With `Cc1cc(C(=O)NC[C@@H]2CC3(CCN2)OCCO3)nc2c(C(C)(C)C)cc(C3CC3)cc12` [Compound 428] as the compound, how does the pEC50 read?
The pEC50 was 6.08.

With `Cc1cc(C(=O)NC[C@@H]2C[C@](C)(O)CN2)nc2c(C(C)(C)C)cc(C3CC3)cc12` [Compound 429] as the compound, how does the pEC50 read?
Its pEC50 is 6.53.

How did the pEC50 turn out when `CC[C@@]1(O)CN[C@H](CNC(=O)c2cc(C)c3cc(C4CC4)cc(C(C)(C)C)c3n2)C1` [Compound 430] was run?
Its pEC50 is 5.84.

With `Cc1cc(C(=O)NC[C@@H]2CC3(CN2)OCCO3)nc2c(C(C)(C)C)cc(C3CC3)cc12` [Compound 431] as the compound, how does the pEC50 read?
The pEC50 was 8.09.

How did the pEC50 turn out when `CO[C@H]1CN[C@H](CNC(=O)c2nc(N)c3cc(C4CC4)cc(C(C)(C)C)c3n2)C1` [Compound 432] was run?
Its pEC50 is 7.08.

With `CC(C)(C)c1cc(C2CC2)cc2c(N)nc(C(=O)NCc3ncccn3)nc12` [Compound 433] as the compound, how does the pEC50 read?
Its pEC50 is 8.92.

With `Nc1nc(C(=O)NCc2cnccn2)nc2c(C(F)(F)F)cc(-c3ccccc3)cc12` [Compound 435] as the compound, how does the pEC50 read?
The pEC50 was 8.11.

`CO[C@@H]1CN[C@H](CNC(=O)c2nc(N)c3cc(-c4ccccc4)cc(C(F)(F)F)c3n2)C1` [Compound 436] was tested. Which pEC50 did it give?
Its pEC50 is 6.23.

How did the pEC50 turn out when `Cc1cc(C(=O)NCC2CC(F)(F)CN2)nc2c(OC(F)(F)F)cc(C3CC3)cc12` (stereo not drawn) [Compound 437] was run?
Its pEC50 is 7.70.

With `CO[C@@H]1CNC(CNC(=O)c2cc(C)c3cc(C4CC4)cc(OC(F)(F)F)c3n2)C1` (stereo partly drawn) [Compound 438] as the compound, how does the pEC50 read?
The pEC50 was 7.34.

How did the pEC50 turn out when `Cc1cc(C(=O)Nc2cn[nH]c2)nc2c(OC(F)(F)F)cc(C3CC3)cc12` [Compound 439] was run?
Its pEC50 is 5.94.

`Cc1cc(C(=O)NCc2ncccn2)nc2c(OC(F)(F)F)cc(C3CC3)cc12` [Compound 440] was tested. Which pEC50 did it give?
Its pEC50 is 7.99.

`Cc1cc(C(=O)NC[C@@H]2CS(=O)(=O)CCN2)nc2c(OC(F)(F)F)cc(C3CC3)cc12` [Compound 441] was tested. Which pEC50 did it give?
Its pEC50 is 7.91.

With `Cc1cc(C(=O)NC[C@@H]2CC3(CN2)OCCO3)nc2c(OC(F)(F)F)cc(C3CC3)cc12` [Compound 443] as the compound, how does the pEC50 read?
The pEC50 was 7.73.

`Cc1cc(-c2nnc(NCC3OCCO3)o2)nc2c(OC(F)(F)F)cc(C3CC3)cc12` [Compound 444] was tested. Which pEC50 did it give?
Its pEC50 is 8.23.

With `Cc1cc(OC(F)(F)F)c2nc(C(=O)NCc3cnccn3)cc(C)c2c1` [Compound 445] as the compound, how does the pEC50 read?
Its pEC50 is 6.59.

With `Cc1cc(OC(F)(F)F)c2nc(C(=O)NCc3ncccn3)cc(C)c2c1` [Compound 446] as the compound, how does the pEC50 read?
The pEC50 was 6.28.

`Cc1cc(C(=O)NCc2ncccn2)nc2c(OC(F)F)cc(OC(F)F)cc12` [Compound 447] was tested. Which pEC50 did it give?
The pEC50 was 7.43.

`Cc1cc(-c2nnc(NCC3OCCO3)o2)nc2c(C(C)(C)C)cc(OCC(F)(F)F)cc12` [Compound 448] was tested. Which pEC50 did it give?
The pEC50 was 8.80.

How did the pEC50 turn out when `Cc1cc(-c2nnc(NCCC(C)(C)O)o2)nc2c(C(C)(C)C)cc(OCC(F)(F)F)cc12` [Compound 449] was run?
The pEC50 was 7.95.

How did the pEC50 turn out when `Cc1cc(-c2nnc(N[C@@H]3CCOC3)o2)nc2c(C(C)(C)C)cc(OCC(F)(F)F)cc12` [Compound 450] was run?
Its pEC50 is 8.50.

`Cc1cc(-c2nnc(N[C@H]3CCOC3)o2)nc2c(C(C)(C)C)cc(OCC(F)(F)F)cc12` [Compound 451] was tested. Which pEC50 did it give?
The pEC50 was 8.61.

How did the pEC50 turn out when `Cc1cc(-c2nnc(NCc3ccn[nH]3)o2)nc2c(C(C)(C)C)cc(OCC(F)(F)F)cc12` [Compound 452] was run?
Its pEC50 is 7.71.

With `Cc1cc(-c2nnc(NCC(=O)N(C)C)o2)nc2c(C(C)(C)C)cc(OCC(F)(F)F)cc12` [Compound 453] as the compound, how does the pEC50 read?
The pEC50 was 7.83.

With `Cc1cc(-c2nnc(NCC3(C)OCCO3)o2)nc2c(C(C)(C)C)cc(OCC(F)(F)F)cc12` [Compound 454] as the compound, how does the pEC50 read?
Its pEC50 is 8.64.

With `Cc1cc(-c2nnc(NCC[C@@H](C)O)o2)nc2c(C(C)(C)C)cc(OCC(F)(F)F)cc12` [Compound 455] as the compound, how does the pEC50 read?
Its pEC50 is 8.52.

How did the pEC50 turn out when `Cc1cc(-c2nnc(NCC[C@H](C)O)o2)nc2c(C(C)(C)C)cc(OCC(F)(F)F)cc12` [Compound 456] was run?
The pEC50 was 8.48.

`Cc1cc(-c2nnc(Nc3cccnc3)o2)nc2c(C(C)(C)C)cc(OCC(F)(F)F)cc12` [Compound 457] was tested. Which pEC50 did it give?
The pEC50 was 8.39.

With `Cc1cc(-c2nnc(Nc3ccccn3)o2)nc2c(C(C)(C)C)cc(OCC(F)(F)F)cc12` [Compound 458] as the compound, how does the pEC50 read?
The pEC50 was 9.08.

How did the pEC50 turn out when `Cc1cc(-c2nnc(NCC(F)(F)CO)o2)nc2c(C(C)(C)C)cc(OCC(F)(F)F)cc12` [Compound 459] was run?
Its pEC50 is 8.36.

`Cc1cc(-c2nnc(NC3CC(O)C3)o2)nc2c(C(C)(C)C)cc(OCC(F)(F)F)cc12` (stereo not drawn) [Compound 461] was tested. Which pEC50 did it give?
Its pEC50 is 8.86.

`Cc1cc(-c2nnc(N[C@H]3C[C@@H](O)C3)o2)nc2c(C(C)(C)C)cc(OCC(F)(F)F)cc12` [Compound 462] was tested. Which pEC50 did it give?
Its pEC50 is 8.81.

How did the pEC50 turn out when `Cc1cc(-c2nnc(N[C@H]3C[C@H](O)C3)o2)nc2c(C(C)(C)C)cc(OCC(F)(F)F)cc12` [Compound 463] was run?
The pEC50 was 8.42.

With `Cc1cc(-c2nnc(NC3CC(C)(O)C3)o2)nc2c(C(C)(C)C)cc(OCC(F)(F)F)cc12` (stereo not drawn) [Compound 466] as the compound, how does the pEC50 read?
Its pEC50 is 9.06.

`Cc1cc(-c2nnc(N[C@H]3C[C@](O)(CF)C3)o2)nc2c(C(C)(C)C)cc(OCC(F)(F)F)cc12` [Compound 467] was tested. Which pEC50 did it give?
The pEC50 was 9.20.

Same assay, conditions: Hepatitis C virus, Huh-7, 72 h; read-out: EC50_HCV1B_

How did the pEC50 turn out when `CCOP(=O)(CNc1nnc(-c2cc(C)c3cc(OCC(F)(F)F)cc(C(C)(C)C)c3n2)o1)OCC` [Compound 460] was run?
Its pEC50 is 6.41.
